The text below walks through data of patent US20230255906A1, “Targeting Serpin B9 in Cancer” (The Brigham and Women`s Hospital, Inc., priority 2020, published 2023).

For one assay, the system named is B16 melanoma cells. Kind of assay: Caspase-3 activity assay (EnzChek Caspase-3 Assay Kit), caspase-3 induction in tumor cells. Further: test concentration or dose not given here. In kind it is cell-based, mouse.
Conditions: not given
Summed up:
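B16 melanoma cells exposed to compounds for 24 h, lysed on ice 30 min, and lysate incubated with Z-DEVD-R110 substrate about 30 min at room temperature. Fluorescence read at ~496/520 nm against untreated-cell and no-enzyme controls; caspase-3 induction serves as surrogate for GrB activity from Sb9 inhibition.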
In the case of `O=C1CCC(NC(=O)c2ccc3nc(-c4ccccc4)oc3c2)C(=O)N1` (centres unmarked) [N-(2,6-dioxopiperidin-3-yl)-2-phenyl-1,3-benzoxazole-6-carboxamide], the “Ratio of caspase-3 activity to Formula (III)” value (from here on “Ratio of caspase-3 activity”) turned out to be 0.6989.

On to `CN(Cc1ccn[nH]1)C(=O)c1ccc2oc(-c3ccc(C(F)(F)F)cc3)nc2c1` [N-methyl-N-(1H-pyrazol-5-ylmethyl)-2-[4-(trifluoromethyl)phenyl]-1,3-benzoxazole-5-carboxamide], for which the “Ratio of caspase-3 activity” value is 0.1414. The same measure, in the same setting: the same measure for `COc1cccc(-c2nc3ccc(C(=O)N(C)CCC4CCCCO4)cc3o2)c1` (centres unmarked) [2-(3-methoxyphenyl)-N-methyl-N-[2-(tetrahydro-2H-pyran-2-yl)ethyl]-1,3-benzoxazole-6-carboxamide]: 0.1405. For the compound `CCN(CCN(C)C)C(=O)c1cnc2c(c1)nc(-c1ccccc1Cl)n2C` [2-(2-chlorophenyl)-N-[2-(dimethylamino)ethyl]-N-ethyl-3-methyl-3H-imidazo[4,5-b]pyridine-6-carboxamide], the “Ratio of caspase-3 activity” value was determined as 1.106. On the same count and under the same terms, the same measure for `O=C(c1ccc2oc(-c3cccc(F)c3)nc2c1)N1CCCCC1CO` (centres unmarked) [(1-{[2-(3-fluorophenyl)-1,3-benzoxazol-5-yl]carbonyl}-2-piperidinyl)methanol]: 1.133; for `O=C(c1ccc2oc(-c3cccc(F)c3)nc2c1)N1CCOc2ccccc2C1` [4-{[2-(3-fluorophenyl)-1,3-benzoxazol-5-yl]carbonyl}-2,3,4,5-tetrahydro-1,4-benzoxazepine]: 0.1627. On the same count and under the same terms, to `O=C(NCCc1ccco1)c1ccc2oc(-c3cccc(F)c3)nc2c1` [2-(3-fluorophenyl)-N-[2-(2-furyl)ethyl]-1,3-benzoxazole-5-carboxamide] belongs 0.09438; to `Cn1cnnc1CCNC(=O)c1ccc2oc(-c3cccc(F)c3)nc2c1` [2-(3-fluorophenyl)-N-[2-(4-methyl-4H-1,2,4-triazol-3-yl)ethyl]-1,3-benzoxazole-5-carboxamide], 0.7133; to `O=C(c1ccc2nc(-c3ccccc3)oc2c1)N1CCC12CCOC2` (centres unmarked) [6-{6-oxa-1-azaspiro[3.4]octane-1-carbonyl}-2-phenyl-1,3-benzoxazole], 1.434.

For the compound `COc1cccc(-c2nc3ccc(C(=O)N4CCN(CCC(N)=O)CC4)cc3o2)c1` [3-(4-{[2-(3-methoxyphenyl)-1,3-benzoxazol-6-yl]carbonyl}-1-piperazinyl)propanamide], the “Ratio of caspase-3 activity” value was 1.077.

On to `COc1cccc(-c2nc3ccc(C(=O)N(C)Cc4nnc(C)o4)cc3o2)c1` [2-(3-methoxyphenyl)-N-methyl-N-[(5-methyl-1,3,4-oxadiazol-2-yl)methyl]-1,3-benzoxazole-6-carboxamide], for which the “Ratio of caspase-3 activity” value is given as 0.7091. With `CC1(C)CC(NC(=O)c2ccc3nc(-c4ccccc4)oc3c2)CO1` (centres unmarked) [N-(5,5-dimethyloxolan-3-yl)-2-phenyl-1,3-benzoxazole-6-carboxamide], the “Ratio of caspase-3 activity” value is on record as 0.09307. The same measure, in the same setting: the same measure for `CCOC(=O)CCNC(=O)c1ccc2nc(-c3cccc(OC)c3)oc2c1` [ethyl N-{[2-(3-methoxyphenyl)-1,3-benzoxazol-6-yl]carbonyl}-beta-alaninate]: 0.1049; for `COc1cccc(-c2nc3ccc(C(=O)NCC(F)(F)F)cc3o2)c1` [2-(3-methoxyphenyl)-N-(2,2,2-trifluoroethyl)-1,3-benzoxazole-6-carboxamide]: 0.09526.

For `O=C(NC1CCC1)c1ccc2oc(-c3ccc(C(F)(F)F)cc3)nc2c1` [N-cyclobutyl-2-[4-(trifluoromethyl)phenyl]-1,3-benzoxazole-5-carboxamide], the “Ratio of caspase-3 activity” value is recorded as 1.28.

Take `O=C(NCCCO)c1ccc2oc(-c3ccc(C(F)(F)F)cc3)nc2c1` [N-(3-hydroxypropyl)-2-[4-(trifluoromethyl)phenyl]-1,3-benzoxazole-5-carboxamide]: the “Ratio of caspase-3 activity” value came to 1.003. Still for that read-out and setting: the same measure for `CC(Cn1cncn1)NC(=O)c1ccc2oc(-c3cccc(F)c3)nc2c1` (centres unmarked) [2-(3-fluorophenyl)-N-[1-methyl-2-(1H-1,2,4-triazol-1-yl)ethyl]-1,3-benzoxazole-5-carboxamide]: 0.1014.

The same assay, now with this note: relative to compound of Formula (III).
Consider `CCOc1ccc(C(=O)NCCCOC)cc1O` [4-ethoxy-3-hydroxy-N-(3-methoxypropyl)benzamide], for which the “Caspase-3 induction, Normalized to Formula (III) (%)” value is reported as −35.6816%. The same measure, in the same setting: the same measure for `COCCCNC(=O)Cc1ccc2ocnc2c1` [2-(1,3-benzoxazol-5-yl)-N-(3-methoxypropyl)acetamide]: −31.2011%; for `O=C(NC1CCCC1)c1ccc2nc(C3CC3)oc2c1` [N-cyclopentyl-2-cyclopropyl-1,3-benzoxazole-6-carboxamide]: −21.5068%. For `O=C(NCc1ccccc1)c1ccc2nc(-c3cc(Cl)cc(Cl)c3)oc2c1` [N-benzyl-2-(3,5-dichlorophenyl)-1,3-benzoxazole-6-carboxamide], the “Caspase-3 induction, Normalized to Formula (III) (%)” value is given as −36.0528%. On the same count and under the same terms, to `COCCCNC(=O)c1cc(OC)c(OC)cc1Br` [2-bromo-4,5-dimethoxy-N-(3-methoxypropyl)benzamide] belongs −85.9622%; to `CCN(C)C(=O)c1cccc2oc(N(C)C)nc12` [2-(dimethylamino)-N-ethyl-N-methyl-1,3-benzoxazole-4-carboxamide], −25.6782%. The same measure, in the same setting: to `O=C(c1ccc2nc(-c3cc(Cl)cc(Cl)c3)oc2c1)N1CCCC1` [2-(3,5-dichlorophenyl)-6-(pyrrolidine-1-carbonyl)-1,3-benzoxazole] belongs −6.23%; to `O=C(Cc1ccc2ocnc2c1)N1CCCC1` [2-(1,3-benzoxazol-5-yl)-1-(pyrrolidin-1-yl)ethan-1-one], 3.0541%; to `CCN(C)C(=O)c1ccc2nc(-c3ccccc3)oc2c1` [N-ethyl-N-methyl-2-phenyl-1,3-benzoxazole-6-carboxamide], −76.883%. `COc1cc(C(=O)NCC2CCOCC2)ccc1OCCC(C)C` [3-methoxy-4-(3-methylbutoxy)-N-[(oxan-4-yl)methyl]benzamide]: the “Caspase-3 induction, Normalized to Formula (III) (%)” value was −31.8318%. With `COCCCNC(=O)c1ccc2nc(C3CC3)oc2c1` [2-cyclopropyl-N-(3-methoxypropyl)-1,3-benzoxazole-6-carboxamide], the “Caspase-3 induction, Normalized to Formula (III) (%)” value is recorded as −4.759%. As to `COCCCNC(=O)c1ccc2nc(C3CCCO3)oc2c1` (centres unmarked) [N-(3-methoxypropyl)-2-(oxolan-2-yl)-1,3-benzoxazole-6-carboxamide], the “Caspase-3 induction, Normalized to Formula (III) (%)” value is given as −69.878%. With `O=C(NCc1ccccc1)c1cc2c(cc1O)OCO2` [N-benzyl-6-hydroxy-2H-1,3-benzodioxole-5-carboxamide], the “Caspase-3 induction, Normalized to Formula (III) (%)” value is on record as −9.366%. The same measure, in the same setting: the same measure for `COCCCNC(=O)c1cc(OC)c(O)c(OC)c1` [4-hydroxy-3,5-dimethoxy-N-(3-methoxypropyl)benzamide]: −23.5938%.

Turning to `CCN(C)C(=O)c1ccc2nc(C3CC3)oc2c1` [2-cyclopropyl-N-ethyl-N-methyl-1,3-benzoxazole-6-carboxamide], the “Caspase-3 induction, Normalized to Formula (III) (%)” value came to 33.9690%.
